Reference: US20240198337A1, “Bone Marrow on a Chip” (NEW YORK UNIVERSITY, priority 2021, published 2024)

Legend:
[1] = system: ETV6-RUNX1+ REH and Ph+ SUP-B15 human B-ALL cell lines; test: Chemo-resistance of engineered human B-ALL BM niches to increasing doses of vincristine (Leukemia-on-a-Chip); assay type: cell-based; settings: B-ALL co-cultured with niche cells
From the text: FIG. 4A through FIG. 4G depicts modeling the leukemic bone marrow (BM) niche in a Leukemia-on-a-Chip platform. […] (FIG. 4C) The Hematoxylin and Eosin (H&E) staining image of the in vivo murine leukemic BM niche, with the enlarged area from showing the co-localization of B-ALL cells respectively within the perivascular and endosteal niches. (FIG. 4D) The chemo-resistance was compared between the engineered human BM niches of ETV6-RUNX1+ REH and Ph+ SUP-B15 B-ALL. Each drug concentration had >3 experimental replicates. (FIG. 4E) The cytokine profiles from two B-ALL blasts with and without niche cells were quantified using membrane-based ELISA analysis. (FIG. 4F) The quantification of nuclear (nuc)/cytoplasmic (cyto) ratio of NF-κB in REH and SUP B-ALL within their respective niche models. The ratios for REH and SUP were manually measured from 3 experimental replicates (N>150). […]
The outcome of drugs was defined by the viability of B-ALL cells as a cytotoxic end point after drug treatment. […] The cell viability was quantitatively determined by using Calcein-AM (Thermo Fischer Scientific) and DAPI, which respectively stained the live and dead cells. […] Afterward, cells were observed under a fluorescence microscope, and cellular viability was quantitatively measured by counting the number of objects in the green (live cells) and red (dead cells) channels. […]

murine Ph+ B-ALL cells = test: Drug resistance testing: B-ALL cell viability in 3D hydrogel devices (Calcein-AM/DAPI); assay type: cell-based; settings: NIL 1 μM, PRE 1 μM, VCR 0.1 μM; for B-ALL drug-induced cell death (chemo-resistance): presence of niche cells
Method: The outcome of drugs was defined by the viability of B-ALL cells as a cytotoxic end point after drug treatment. B-ALL cells were cultured alone or co-cultured with niche cells in 3D hydrogel devices for 24 hr, and then incubated with 1 μM nilotinib (NIL, Cayman Chemical), 1 μM prednisone (PRE, Sigma), and 0.1 μM vincristine (VCR, Sigma) for 48 hr. The cell viability was quantitatively determined by using Calcein-AM (Thermo Fischer Scientific) and DAPI, which respectively stained the live and dead cells. Briefly, cells were rinsed thrice with PBS and incubated with Calcein-AM and DAPI ([…] and 5 μg/mL in PBS or medium) solution for 30 min at 37° C., followed by a final rinse with PBS. Afterward, cells were observed under a fluorescence microscope, and cellular viability was quantitatively measured by counting the number of objects in the green (live cells) and red (dead cells) channels. Untreated groups of B-ALL cells were used as controls to benchmark the drug resistance of different groups.

REH B-ALL blasts = test: REH viability cultured with hematopoietic cells under VCR treatment; assay type: cell-based, human; settings: 48 hr treatment of 20 nM VCR; co-culture with CD34+ HSPC-derived hematopoietic cells
From the text: FIG. 13A through FIG. 13L depict the results of niche cells functioning disparately to regulate leukemia progression. (FIG. 13A) Membrane-based ELISA analysis of CXCL12 secretion of ECs (Top left) and MSCs (Top right). Western blotting of CXCL12 expression of ECs (Bottom left) and MSCs (Bottom right). (FIG. 13B) VCAM-1 expression of ECs and the quantification result (N>200). (FIG. 13C) OPN expression of 2D cultured MSCs and the quantification result (N>200). (FIG. 13D) The correlation between distance of B-ALL to MSCs and dye retaining ability of B-ALL (N>120). B-ALL with lower DiD intensity was excluded as indicated by the dash line. (FIG. 13E) and (FIG. 13F) The flow cytometric images showing DiD dye retained in B-ALL, i.e. low (Lo), middle (Mid), and high (Hi) intensity. (FIG. 13G) The representative images showing p21 expression in B-ALL located in the perivascular and endosteal niches (N=54). (FIG. 13H) B-ALL viability in the two niches treated with different drugs. (FIG. 13I) NF-κB activation in REH after co-cultured with hematopoietic cells. […] (FIG. 13L) The quantified number of CD34+ cells. […]
The contributing mechanisms from hematopoietic cells was then investigated. […] Furthermore, healthy bone marrow mononuclear cells were cultured with and without REH blasts in the leukemia systems for day 1 and day 9 and the number of CD34+ cells was quantified. […]

With CC[C@]1(O)C[C@H]2CN(CCc3c([nH]c4ccccc34)[C@@](C(=O)OC)(c3cc4c(cc3OC)N(C=O)[C@H]3[C@@](O)(C(=O)OC)[C@H](OC(C)=O)[C@]5(CC)C=CCN6CC[C@]43[C@@H]65)C2)C1 [vincristine] the “chemotherapy sensitivity (chemo-resistance) of REH versus SUP BM niches” value [1] was “SUP B-ALL co-cultured with niche cells showing more resistant to VCR than REH co-cultured with niche cells”, the “viability of B-ALL cells in perivascular versus endosteal niche” value (murine Ph+ B-ALL cells; 2-day treatment) was “a stronger dormancy and chemo-resistance of B-ALL cells in the endosteal niche” and the “B-ALL eradication (viability)” value (murine Ph+ B-ALL cells; absence of niche cells, 48 hr) was “efficient B-ALL eradication”. For the same compound, the “B-ALL drug-induced cell death (chemo-resistance)” value (murine Ph+ B-ALL cells; 48 hr) was “chemo-resistance phenomenon was confirmed”, the “B-ALL drug-induced cell death (chemo-resistance)” value (murine Ph+ B-ALL cells; 48 hr, listed as VCR) was “partial rescue of drug-induced cell death” and the “REH viability / chemo-resistance with hematopoietic cells” value (REH B-ALL blasts) was “hematopoietic cells also promoted NF-κB activation in B-ALL cells and chemo-resistance to VCR treatment”.
